The values below come from patent US12447153B2, “HER2 mutation inhibitors” (Array BioPharma Inc., priority 2021, dated 2025).

Data set [1] addresses ErbB2 with Exon 20 YVMA insertion (HER2-YVMA) (Homo sapiens (Human), UniProt P04626, INS775YVMA). In words: Cellular Phosphorylation Assay, Assay 4 (constitutive ErbB2 phosphorylation, NIH 3T3 cells). The format is cell-based. The note with it: ErbB2 YVMA phosphorylation.
For data set [2], the target named is BCRP (Homo sapiens (Human), UniProt Q9UNQ0). In words: BCRP MDCKII efflux assay (Assay 7). The format is in vitro ADME. The note with it: dog; efflux ratio Papp(B-A)/Papp(A-B), BCRP MDCKII cells; read-out: Assay 7 Pe Ratio. The procedure: Assay conditions included with and without the BCRP-specific inhibitor, KO143, at a concentration of 0.3 μM to ascertain the contribution of BCRP to the efflux value of the test compound.
Final organic concentration in the assay was 1%.

Data set [3] has as its target EGFR (Homo sapiens (Human), UniProt P00533). In words: ErbB Enzyme Assay (HTRF KinEASE-TK), Assay 3. It counts as biochemical. The following applies: EGFR enzyme.
In data set [4] the target is EGFR wild type (EGFR WT) (Homo sapiens (Human), UniProt P00533). In words: Cellular Phosphorylation Assay, Assay 5 (EGF-stimulated EGFR phosphorylation, NIH 3T3 cells). The format is cell-based. The note with it: EGF-stimulated EGFR WT phosphorylation.
Data set [5] addresses ErbB2 WT (Homo sapiens (Human), UniProt P04626). In words: ErbB Enzyme Assay (HTRF KinEASE-TK), Assay 2. The format is biochemical. The following applies: ErbB2 WT enzyme.

ErbB2 with Exon 20 YVMA insertion (HER2-YVMA), sequence (P04626 other isoform, or with tags, fused parts or gaps ins YVMA behind 775): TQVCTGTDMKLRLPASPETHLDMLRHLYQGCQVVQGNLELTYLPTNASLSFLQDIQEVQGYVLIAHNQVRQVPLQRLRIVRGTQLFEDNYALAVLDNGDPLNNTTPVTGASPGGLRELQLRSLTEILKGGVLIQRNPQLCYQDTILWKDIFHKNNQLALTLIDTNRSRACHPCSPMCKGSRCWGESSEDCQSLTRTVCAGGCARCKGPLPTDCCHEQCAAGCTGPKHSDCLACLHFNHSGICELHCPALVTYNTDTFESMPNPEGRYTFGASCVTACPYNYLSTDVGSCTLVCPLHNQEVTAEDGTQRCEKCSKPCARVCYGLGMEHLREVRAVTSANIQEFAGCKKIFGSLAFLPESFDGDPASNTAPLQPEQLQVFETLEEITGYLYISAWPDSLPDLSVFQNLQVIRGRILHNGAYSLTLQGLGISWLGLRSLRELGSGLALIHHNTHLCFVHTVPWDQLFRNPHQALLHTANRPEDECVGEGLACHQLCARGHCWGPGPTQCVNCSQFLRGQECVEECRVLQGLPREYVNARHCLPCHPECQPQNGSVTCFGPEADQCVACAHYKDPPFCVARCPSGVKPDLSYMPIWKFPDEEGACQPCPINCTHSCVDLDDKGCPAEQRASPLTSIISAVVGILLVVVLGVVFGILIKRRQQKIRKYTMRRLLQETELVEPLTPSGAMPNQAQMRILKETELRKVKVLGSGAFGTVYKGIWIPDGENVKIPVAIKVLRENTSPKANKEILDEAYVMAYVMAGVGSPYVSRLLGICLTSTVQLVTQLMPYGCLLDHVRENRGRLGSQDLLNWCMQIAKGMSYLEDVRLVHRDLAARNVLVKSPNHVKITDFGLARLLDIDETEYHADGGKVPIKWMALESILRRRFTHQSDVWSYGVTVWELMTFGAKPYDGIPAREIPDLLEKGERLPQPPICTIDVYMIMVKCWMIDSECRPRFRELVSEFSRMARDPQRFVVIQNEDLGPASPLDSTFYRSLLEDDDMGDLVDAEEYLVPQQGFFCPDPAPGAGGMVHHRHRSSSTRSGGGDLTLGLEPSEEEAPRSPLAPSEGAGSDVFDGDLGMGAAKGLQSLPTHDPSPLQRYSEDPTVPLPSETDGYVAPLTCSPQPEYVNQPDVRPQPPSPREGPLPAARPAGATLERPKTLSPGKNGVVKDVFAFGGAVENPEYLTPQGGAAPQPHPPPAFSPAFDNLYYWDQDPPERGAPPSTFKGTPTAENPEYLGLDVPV
EGFR, sequence (P00533 25-1210): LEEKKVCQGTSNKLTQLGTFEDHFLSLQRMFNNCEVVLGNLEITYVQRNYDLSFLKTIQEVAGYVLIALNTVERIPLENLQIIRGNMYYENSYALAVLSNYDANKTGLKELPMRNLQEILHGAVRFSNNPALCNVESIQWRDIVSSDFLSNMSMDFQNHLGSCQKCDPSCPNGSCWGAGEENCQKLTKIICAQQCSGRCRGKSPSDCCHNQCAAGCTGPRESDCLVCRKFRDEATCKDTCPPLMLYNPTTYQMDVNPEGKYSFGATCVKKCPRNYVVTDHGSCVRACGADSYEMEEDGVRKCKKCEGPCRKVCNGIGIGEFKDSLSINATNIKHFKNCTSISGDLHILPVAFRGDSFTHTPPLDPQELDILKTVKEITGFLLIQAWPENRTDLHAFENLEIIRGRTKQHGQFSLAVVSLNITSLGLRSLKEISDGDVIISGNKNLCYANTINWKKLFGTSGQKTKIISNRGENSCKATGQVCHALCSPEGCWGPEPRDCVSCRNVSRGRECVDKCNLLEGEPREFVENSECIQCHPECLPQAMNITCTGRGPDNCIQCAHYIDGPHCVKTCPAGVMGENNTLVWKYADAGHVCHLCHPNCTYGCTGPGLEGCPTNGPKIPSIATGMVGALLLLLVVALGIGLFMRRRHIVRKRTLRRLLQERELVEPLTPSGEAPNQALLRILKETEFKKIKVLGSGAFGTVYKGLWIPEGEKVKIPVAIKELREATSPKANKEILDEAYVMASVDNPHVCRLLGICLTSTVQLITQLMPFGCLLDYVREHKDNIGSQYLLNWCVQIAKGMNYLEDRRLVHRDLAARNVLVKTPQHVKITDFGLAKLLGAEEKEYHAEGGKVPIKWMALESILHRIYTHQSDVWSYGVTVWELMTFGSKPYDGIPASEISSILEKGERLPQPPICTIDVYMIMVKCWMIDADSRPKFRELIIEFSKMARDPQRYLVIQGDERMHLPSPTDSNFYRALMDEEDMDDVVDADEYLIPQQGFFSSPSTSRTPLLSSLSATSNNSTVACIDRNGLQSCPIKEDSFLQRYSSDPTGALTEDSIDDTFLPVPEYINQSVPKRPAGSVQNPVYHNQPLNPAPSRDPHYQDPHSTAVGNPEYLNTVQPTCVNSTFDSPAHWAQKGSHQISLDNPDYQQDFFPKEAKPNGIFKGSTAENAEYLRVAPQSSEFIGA
EGFR wild type (EGFR WT), sequence (P00533 25-1210): as above
ErbB2 WT, sequence (P04626 23-1255): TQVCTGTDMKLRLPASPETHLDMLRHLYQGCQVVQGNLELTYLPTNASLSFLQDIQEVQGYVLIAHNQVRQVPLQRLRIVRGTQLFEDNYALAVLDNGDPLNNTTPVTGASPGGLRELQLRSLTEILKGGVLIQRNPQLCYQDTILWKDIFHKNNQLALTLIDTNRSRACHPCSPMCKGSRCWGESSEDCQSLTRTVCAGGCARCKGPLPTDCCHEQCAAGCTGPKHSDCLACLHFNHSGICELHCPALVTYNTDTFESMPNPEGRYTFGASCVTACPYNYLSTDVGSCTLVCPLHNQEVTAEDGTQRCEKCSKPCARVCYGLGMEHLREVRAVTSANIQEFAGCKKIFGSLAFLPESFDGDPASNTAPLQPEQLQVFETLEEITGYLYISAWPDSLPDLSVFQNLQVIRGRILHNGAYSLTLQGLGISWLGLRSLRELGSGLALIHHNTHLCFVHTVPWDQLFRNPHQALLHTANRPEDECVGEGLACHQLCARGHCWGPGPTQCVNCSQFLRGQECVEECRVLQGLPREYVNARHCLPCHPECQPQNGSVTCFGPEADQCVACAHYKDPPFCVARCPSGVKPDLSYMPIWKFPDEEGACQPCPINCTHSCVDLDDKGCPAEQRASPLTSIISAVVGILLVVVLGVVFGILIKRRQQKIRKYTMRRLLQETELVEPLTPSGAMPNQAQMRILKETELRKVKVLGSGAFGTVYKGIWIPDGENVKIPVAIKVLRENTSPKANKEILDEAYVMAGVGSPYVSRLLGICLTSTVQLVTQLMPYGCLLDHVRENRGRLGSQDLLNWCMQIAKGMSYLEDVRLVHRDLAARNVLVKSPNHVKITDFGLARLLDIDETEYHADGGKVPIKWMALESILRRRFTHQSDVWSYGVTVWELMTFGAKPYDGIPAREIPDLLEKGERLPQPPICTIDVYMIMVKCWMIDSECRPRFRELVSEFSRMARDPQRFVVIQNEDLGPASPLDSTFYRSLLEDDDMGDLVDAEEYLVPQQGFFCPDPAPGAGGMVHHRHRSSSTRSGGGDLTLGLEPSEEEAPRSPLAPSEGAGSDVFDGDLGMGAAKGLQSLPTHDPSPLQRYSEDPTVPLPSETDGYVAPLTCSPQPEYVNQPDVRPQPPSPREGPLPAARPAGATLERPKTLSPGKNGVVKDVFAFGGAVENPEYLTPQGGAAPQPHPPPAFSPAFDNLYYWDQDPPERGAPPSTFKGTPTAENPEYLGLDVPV

With `C=CC(=O)N1CCN(c2nc3c(Oc4ccc(Oc5ccc6c(c5)ncn6C)c(C)c4)ncnc3cc2OC)CC1` [Example 41, 1-(4-(7-methoxy-4-(3-methyl-4-((1-methyl-1H-benzo[d]imidazol-5-yl)oxy)phenoxy)pyrido[3,2-d]pyrimidin-6-yl)piperazin-1-yl)prop-2-en-1-one], the IC50 in data set [1] was 31 nM; in data set [3] it was 5070 nM; in data set [4], no less than 5000 nM; in data set [5], 130 nM. In addition, the efflux ratio at 2 h, 1 µM in data set [2] was 16.7.
The matching figures for `C=CC(=O)N1C2CC1CN(c1ccc3ncnc(Nc4ccc(Oc5ccn6ncnc6c5)c(C)c4F)c3n1)C2` [Example 47, 1-(3-(4-((4-([1,2,4]triazolo[1,5-a]pyridin-7-yloxy)-2-fluoro-3-methylphenyl)amino)pyrido[3,2-d]pyrimidin-6-yl)-3,6-diazabicyclo[3.1.1]heptan-6-yl)prop-2-en-1-one]: 13.7 nM, 3720 nM, 2130 nM, 60.9 nM and 9.6.
The corresponding values for `C=CC(=O)N1C2CC1CN(c1ccc3ncnc(Nc4cc(C)c(Oc5ccc6c(c5)ncn6C)cc4F)c3n1)C2` [Example 48, 1-(3-(4-((2-fluoro-5-methyl-4-((1-methyl-1H-benzo[d]imidazol-5-yl)oxy)phenyl)amino)pyrido[3,2-d]pyrimidin-6-yl)-3,6-diazabicyclo[3.1.1]heptan-6-yl)prop-2-en-1-one] are 16.6 nM, no less than 10000 nM, no less than 5000 nM, 264 nM and 10.2.
The matching figures for `C=CC(=O)N1CCC(Sc2ccc3ncnc(Nc4ccc(Oc5ccc6c(c5)ncn6C)c(C)c4)c3n2)CC1` [Example 59, 1-(4-((4-((3-methyl-4-((1-methyl-1H-benzo[d]imidazol-5-yl)oxy)phenyl)amino)pyrido[3,2-d]pyrimidin-6-yl)thio)piperidin-1-yl)prop-2-en-1-one]: 19 nM, 534 nM, no less than 5000 nM, 25.4 nM and 10.8.
Regarding `C=CC(=O)N1CC(Sc2ccc3ncnc(Nc4ccc(Oc5ccn6ncnc6c5)c(C)c4F)c3n2)C1` [Example 63, 1-(3-((4-((4-([1,2,4]triazolo[1,5-a]pyridin-7-yloxy)-2-fluoro-3-methylphenyl)amino)pyrido[3,2-d]pyrimidin-6-yl)thio)azetidin-1-yl)prop-2-en-1-one], the IC50 in data set [1] amounted to 19.5 nM; in data set [3], 508 nM; in data set [4] it was 426 nM; in data set [5], 31.4 nM. Also, in data set [2], the efflux ratio at 2 h, 1 µM stood at 3.8.
The corresponding values for `C=CC(=O)N1CCC2CN(c3ccc4ncnc(Nc5ccc(Oc6ccn7ncnc7c6)c(Cl)c5)c4n3)CC21` (stereo not shown) [Example 70, 1-(5-(4-((4-([1,2,4]triazolo[1,5-a]pyridin-7-yloxy)-3-chlorophenyl)amino)pyrido[3,2-d]pyrimidin-6-yl)hexahydropyrrolo[3,4-b]pyrrol-1(2H)-yl)prop-2-en-1-one] are 21.6 nM, 2950 nM, no less than 5000 nM, 10 nM and 41.8.
The corresponding values for `C=CC(=O)N1CCN(c2ccc3ncnc(Nc4ccc(Oc5ccc6c(c5)ncn6C)c(Cl)c4)c3n2)CC1` [Example 72, 1-(4-(4-((3-chloro-4-((1-methyl-1H-benzo[d]imidazol-5-yl)oxy)phenyl)amino)pyrido[3,2-d]pyrimidin-6-yl)piperazin-1-yl)prop-2-en-1-one] are 4.7 nM, 880 nM, 511 nM, 8.7 nM and 15.4.
The matching figures for `C=CC(=O)N1CCN(c2ccc3ncnc(Nc4ccc(Oc5ccn6ncnc6c5)c(Cl)c4)c3n2)CC1(C)C` [Example 74, 1-(4-(4-((4-([1,2,4]triazolo[1,5-a]pyridin-7-yloxy)-3-chlorophenyl)amino)pyrido[3,2-d]pyrimidin-6-yl)-2,2-dimethylpiperazin-1-yl)prop-2-en-1-one]: 5.7 nM, 1710 nM, 298 nM, 9.2 nM and 6.4.
In the case of `C=CC(=O)N1CCN(c2ccc3ncnc(Nc4ccc(Oc5ccc6c(c5)ncn6C)c(C)c4F)c3n2)CC1(C)C` [Example 75, 1-(4-(4-((2-fluoro-3-methyl-4-((1-methyl-1H-benzo[d]imidazol-5-yl)oxy)phenyl)amino)pyrido[3,2-d]pyrimidin-6-yl)-2,2-dimethylpiperazin-1-yl)prop-2-en-1-one], the IC50 was 13.7 nM in data set [1], no less than 10000 nM in data set [3], no less than 5000 nM in data set [4] and 65.2 nM in data set [5]. The efflux ratio at 2 h, 1 µM in data set [2] was 3.8.
The corresponding values for `C=CC(=O)N1CCN(c2ccc3ncnc(Nc4ccc(Oc5ccn6ncnc6c5)c(C)c4)c3n2)CC1(C)C` [Example 77, 1-(4-(4-((4-([1,2,4]triazolo[1,5-a]pyridin-7-yloxy)-3-methylphenyl)amino)pyrido[3,2-d]pyrimidin-6-yl)-2,2-dimethylpiperazin-1-yl)prop-2-en-1-one] are 9.3 nM, 2550 nM, 874 nM, 9 nM and 11.6.
The corresponding values for `C=CC(=O)N1C[C@@H]2C[C@H]1CN2c1ccc2ncnc(Nc3cc(Cl)c(Oc4ccn5ncnc5c4)cc3F)c2n1` [Example 80, 1-((1S,4S)-5-(4-((4-([1,2,4]triazolo[1,5-a]pyridin-7-yloxy)-5-chloro-2-fluorophenyl)amino)pyrido[3,2-d]pyrimidin-6-yl)-2,5-diazabicyclo[2.2.1]heptan-2-yl)prop-2-en-1-one] are 4.1 nM, 218 nM, 246 nM, 17 nM and 12.4.
The corresponding values for `C=CC(=O)N1CCN(c2ccc3ncnc(Nc4cc(Cl)c(Oc5ccn6ncnc6c5)cc4F)c3n2)CC1` [Example 81, 1-(4-(4-((4-([1,2,4]triazolo[1,5-a]pyridin-7-yloxy)-5-chloro-2-fluorophenyl)amino)pyrido[3,2-d]pyrimidin-6-yl)piperazin-1-yl)prop-2-en-1-one] are 9.5 nM, 9430 nM, no less than 5000 nM, 33.2 nM and 17.4.
`C=CC(=O)N1C[C@H]2C[C@@H]1CN2c1ccc2ncnc(Nc3ccc(Oc4ccc5c(c4)ncn5C)c(C)c3F)c2n1` [Example 83, 1-((1R,4R)-5-(4-((2-fluoro-3-methyl-4-((1-methyl-1H-benzo[d]imidazol-5-yl)oxy)phenyl)amino)pyrido[3,2-d]pyrimidin-6-yl)-2,5-diazabicyclo[2.2.1]heptan-2-yl)prop-2-en-1-one]: the IC50 in data set [1] was 9.6 nM; in data set [3], 5580 nM; in data set [4], no less than 5000 nM; in data set [5], 81.5 nM. Further, the efflux ratio at 2 h, 1 µM in data set [2] was 6.3.
Take `C=CC(=O)N1C[C@H]2C[C@@H]1CN2c1ccc2ncnc(Nc3ccc(Oc4ccn5ncnc5c4)c(C)c3F)c2n1` [Example 94, 1-((1R,4R)-5-(4-((4-([1,2,4]triazolo[1,5-a]pyridin-7-yloxy)-2-fluoro-3-methylphenyl)amino)pyrido[3,2-d]pyrimidin-6-yl)-2,5-diazabicyclo[2.2.1]heptan-2-yl)prop-2-en-1-one]: the IC50 is 30.6 nM in data set [1], no less than 10000 nM in data set [3], no less than 5000 nM in data set [4] and 170 nM in data set [5]. Besides, the efflux ratio at 2 h, 1 µM in data set [2] was 6.8.
The corresponding values for `C=CC(=O)N1CCN(c2ccc3ncnc(Nc4ccc(Oc5ccn6ncnc6c5)c(Cl)c4)c3n2)CC1` [Example 97, 1-(4-(4-((4-([1,2,4]triazolo[1,5-a]pyridin-7-yloxy)-3-chlorophenyl)amino)pyrido[3,2-d]pyrimidin-6-yl)piperazin-1-yl)prop-2-en-1-one] are 3.2 nM, 344 nM, 413 nM, 3.2 nM and 47.
Take `C=CC(=O)N1CCCN(c2ccc3ncnc(Nc4ccc(Oc5ccn6ncnc6c5)c(Cl)c4F)c3n2)CC1` [Example 98, 1-(4-(4-((4-([1,2,4]triazolo[1,5-a]pyridin-7-yloxy)-3-chloro-2-fluorophenyl)amino)pyrido[3,2-d]pyrimidin-6-yl)-1,4-diazepan-1-yl)prop-2-en-1-one]: the IC50 was determined as 18.9 nM in data set [1], 3360 nM in data set [3], 2680 nM in data set [4] and 51.1 nM in data set [5]. In addition, the efflux ratio at 2 h, 1 µM in data set [2] is 11.
The corresponding values for `C=CC(=O)N1CCN(c2ccc3ncnc(Nc4ccc(Oc5ccc6c(c5)ncn6C)c(C)c4)c3n2)CC1(C)C` [Example 103, 1-(2,2-dimethyl-4-(4-((3-methyl-4-((1-methyl-1H-benzo[d]imidazol-5-yl)oxy)phenyl)amino)pyrido[3,2-d]pyrimidin-6-yl)piperazin-1-yl)prop-2-en-1-one] are 4.6 nM, no less than 10000 nM, 1320 nM, 2.9 nM and 10.9.
